In brackets after ≈: the same amount, converted by molar mass. Like-named read-outs stand apart in the source and are kept apart here.
Test: Solubility in various solvents (sonicated at 25° C., centrifuged, filtered, HPLC)
Type: physicochemical
Conditions: thermodynamic from solid, read-out: Solubility (mg/mL at 25° C.)
Description: (§1) The solubility of compound 141 was evaluated in various solvents. In the evaluation, a compound 141 sample was place into a 1.5 mL vial, 1 mL of the solvent was added, and the mixture was sonicated at 25° C. for 5 minutes. The mixture was then centrifuged, the upper supernatant was filtered through a microfilter, a filtrate aliquot was taken, diluted with acetonitrile, filtered, and injected into an HPLC column. The results are summarized in Example 8 Table 4 below where the purity of compound 141 was greater than 98 area % by HPLC.
as §1, with “compound 180” for “compound 141”, “was placed” for “was place”, “Example 9” for “Example 8”

[1] = organic solvent or mixture, solvent Acetone
[2] = organic solvent or mixture, solvent Acetonitrile
[3] = organic solvent or mixture, solvent Dichloromethane
[4] = organic solvent or mixture, solvent Dimethylformamide
[5] = organic solvent or mixture, solvent Ethanol
[6] = organic solvent or mixture, solvent Ethyl acetate
[7] = organic solvent or mixture, solvent Heptane
[8] = organic solvent or mixture, solvent Isopropanol
[9] = organic solvent or mixture, solvent Methanol
[10] = organic solvent or mixture, solvent Methyl tetrahydrofuran
[11] = organic solvent or mixture, solvent Petroleum ether
[12] = organic solvent or mixture, solvent Tetrahydrofuran
[13] = organic solvent or mixture, solvent Toluene
[14] = organic solvent or mixture, solvent tert-Butyl methyl ether

| solubility at 5 min (organic solvent or mixture, solvent Dioxane) [mg/mL] | Structure (SMILES) | solubility at 5 min [1] [mg/mL] | solubility at 5 min [2] [mg/mL] | solubility at 5 min [3] [mg/mL] | solubility at 5 min [4] [mg/mL] | solubility at 5 min [5] [mg/mL] | solubility at 5 min [6] [mg/mL] | solubility at 5 min [7] [mg/mL] | solubility at 5 min [8] [mg/mL] | solubility at 5 min [9] [mg/mL] | solubility at 5 min [10] [mg/mL] | solubility at 5 min [11] [mg/mL] | solubility at 5 min [12] [mg/mL] | solubility at 5 min [13] [mg/mL] | solubility at 5 min [14] [mg/mL] | solubility at 5 min (solvent Water) [mg/mL] |
| --- | --- | --- | --- | --- | --- | --- | --- | --- | --- | --- | --- | --- | --- | --- | --- | --- |
| 44.7 (≈ 103 mM) | C[C@H]1CN(C2COC2)CCN1c1ccc(Nc2cc(Br)cn(C)c2=O)nc1 [Compound 180] | 3.73 (≈ 8.59 mM) | 2.3 (≈ 5.3 mM) | 50.6 (≈ 116 mM) | 20.8 (≈ 47.9 mM) | 1.52 (≈ 3.5 mM) | 4.53 (≈ 10.4 mM) | 0.03 (≈ 0.0691 mM) | 2.65 (≈ 6.1 mM) | 1.35 (≈ 3.11 mM) | 7.19 (≈ 16.6 mM) | 0.03 (≈ 0.0691 mM) | 24 (≈ 55.3 mM) | 9.81 (≈ 22.6 mM) | 1.25 (≈ 2.88 mM) | 0.52 (≈ 1.2 mM) |
| – | C[C@H]1CN(C2COC2)CCN1c1ccc(N)nc1 [Compound 141] | 154 (≈ 619 mM) | 97.7 (≈ 393 mM) | 269 (≈ 1080 mM) | 200 (≈ 803 mM) | 154 (≈ 618 mM) | 82.3 (≈ 331 mM) | 0.32 (≈ 1.29 mM) | 222 (≈ 895 mM) | 221 (≈ 892 mM) | 83 (≈ 334 mM) | 0.26 (≈ 1.05 mM) | 175 (≈ 705 mM) | 20.6 (≈ 83 mM) | 7.39 (≈ 29.8 mM) | 30.7 (≈ 124 mM) |

From patent US10882864B2, “Process for preparing BTK inhibitors” (Genentech, Inc., priority 2016, dated 2021)
